Experimental data reported in US6815556B2, “Compounds having fungicidal activity and processes to make and use same” (Dow AgroSciences LLC, priority 2000, dated 2004).
Like-named read-outs stand apart in the source and are kept apart here.

Legend:
Phytophthora infestans = assay: whole plant or invertebrate; assay type: in vivo; conditions: 24 h, read-out: PHYTIN percent control
Plasmopara viticola = assay: whole plant or invertebrate; assay type: in vivo; conditions: 24 h, read-out: PLASVI percent control
Septoria tritici = assay: Leaf Blotch of Wheat, 1-day protectant whole plant test; assay type: in vivo; conditions: Zymoseptoria tritici, 24 h, read-out: SEPTTR percent control
[1] = 100 ppm spray, wheat plants (variety Monon), one-day protectant test, vs untreated inoculated plants

Compound	pest or weed control at 100 ppm (Phytophthora infestans)	pest or weed control at 100 ppm (Plasmopara viticola)	pest or weed control at 100 ppm (Septoria tritici)	melting point	pest or weed control at 100 ppm (Septoria tritici; [1])
Cc1ccc(OC(=O)N[C@H](CS(=O)(=O)C(C)c2ccc(C#N)cc2)C(C)C)cc1 (some centres unmarked) [Compound 29]	90 to 100%	90 to 100%	50 to 89%	65 to 74 °C	–
CC(C)OC(=O)N[C@H](CS(=O)(=O)C(Cl)c1ccc(Cl)cc1)C(C)C (some centres unmarked) [Compound 22, isopropyl 1-({[chloro(4-chlorophenyl)methyl]sulfonyl}methyl)-2-methylpropylcarbamate]	90 to 100%	90 to 100%	–	140 to 143 °C	< 20%
C#CCCOC(=O)N[C@H](CS(=O)(=O)C(C)c1ccc(Br)cc1)C(C)C (some centres unmarked) [Compound 21]	90 to 100%	50 to 89%	–	–	50 to 89%
CC(C)OC(=O)N[C@H](CS(=O)(=O)C(C)c1ccc(Br)c([N+](=O)[O-])c1)C(C)C (some centres unmarked) [Compound 24]	90 to 100%	90 to 100%	–	–	–
CC(C)OC(=O)N[C@H](CS(=O)(=O)C(C)c1ccc(-c2ccccc2)cc1)C(C)C (some centres unmarked) [Compound 6]	90 to 100%	90 to 100%	–	–	–
CC(C)OC(=O)N[C@H](CS(=O)(=O)C(C)c1ccc(Br)nc1)C(C)C (some centres unmarked) [Compound 8]	50 to 89%	50 to 89%	–	–	< 20%
COC(C)[C@@H](CS(=O)(=O)C(C)c1ccc(C#N)cc1)NC(=O)Oc1ccc(C)cc1 (some centres unmarked) [Compound 40]	90 to 100%	90 to 100%	–	–	–
COc1cccc(OC(=O)N[C@H](CS(=O)(=O)C(C)c2ccc(C#N)cc2)C(C)C)c1 (some centres unmarked) [Compound 43]	50 to 89%	90 to 100%	–	50 to 53 °C	–
CCC(c1ccc(Cl)cc1)S(=O)(=O)C[C@@H](NC(=O)OC(C)C)C(C)C (some centres unmarked) [Compound 23]	50 to 89%	50 to 89%	–	–	50 to 89%
CCC(C)[C@@H](CS(=O)(=O)C(C)c1ccc(Br)cc1)NC(=O)OC(C)C (some centres unmarked) [Compound 39]	90 to 100%	90 to 100%	–	–	–
CC(C)OC(=O)N[C@H](CS(=O)(=O)C(C)c1ccc2ccccc2c1)C(C)C (some centres unmarked) [Compound 16]	90 to 100%	50 to 89%	–	–	–
CC(C)OC(=O)N[C@H](CS(=O)(=O)C(C)c1nc2ccc(Br)cc2s1)C(C)C (some centres unmarked) [Compound 10]	90 to 100%	90 to 100%	–	–	–
CC(c1ccc(C#N)cc1)S(=O)(=O)C[C@H](CC1CCCCC1)NC(=O)OC(C)(C)C (some centres unmarked) [Compound 41]	50 to 89%	90 to 100%	–	58 to 65 °C	–
CC(C)OC(=O)N[C@H](CS(=O)(=O)C(C)c1cccc(F)c1)C(C)C (some centres unmarked) [Compound 3]	90 to 100%	50 to 89%	–	–	–
CC(C)[C@@H](CS(=O)(=O)C(C)c1ccc(C#N)cc1)NC(=O)Oc1ccc(F)cc1 (some centres unmarked) [Compound 18]	90 to 100%	90 to 100%	50 to 89%	–	–
C#Cc1ccc(C(C)S(=O)(=O)C[C@@H](NC(=O)OC(C)C)C(C)C)cc1 (some centres unmarked) [Compound 11]	90 to 100%	50 to 89%	–	125 to 135 °C	50 to 89%
CC(C)[C@@H](CS(=O)(=O)C(C)c1ccc(Br)cc1)NC(=O)OC(C)(C)C (some centres unmarked) [Compound 20]	90 to 100%	50 to 89%	–	–	20 to 49%
CC[C@@H](CS(=O)(=O)C(C)c1ccc(C#N)cc1)NC(=O)Oc1ccc(C)cc1 (some centres unmarked) [Compound 38]	90 to 100%	90 to 100%	–	50 to 60 °C	–
CC[C@@H](CS(=O)(=O)C(C)c1ccc(C#N)cc1)NC(=O)Oc1ccc(F)cc1 (some centres unmarked) [Compound 42]	90 to 100%	90 to 100%	–	50 to 62 °C	–
Cc1ccc(OC(=O)N[C@H](CS(=O)(=O)C(C)c2ccc(C#N)cc2)C(C)C)cc1C (some centres unmarked) [Compound 33]	90 to 100%	90 to 100%	–	–	–
C=C(C)OC(=O)N[C@H](CS(=O)(=O)C(C)c1ccc(C#N)cc1)C(C)C (some centres unmarked) [Compound 28]	90 to 100%	90 to 100%	–	–	–
CC(C)OC(=O)N[C@H](CS(=O)(=O)C(C)c1ccc(OC(F)(F)F)cc1)C(C)C (some centres unmarked) [Compound 4]	90 to 100%	90 to 100%	–	50 to 60 °C	< 20%

Compound	pest or weed control at 100 ppm (Phytophthora infestans)	pest or weed control at 100 ppm (Plasmopara viticola)	pest or weed control at 100 ppm (Septoria tritici)	melting point	pest or weed control at 100 ppm (Septoria tritici; [1])
CC(C)OC(=O)N[C@@H](C(C)C)C(C)S(=O)(=O)C(C)c1ccc(Br)cc1 (some centres unmarked) [Compound 44]	90 to 100%	50 to 89%	–	–	–
CC(C)[C@@H](CS(=O)(=O)C(C)c1ccc(C#N)cc1)NC(=O)OCC(Cl)(Cl)Cl (some centres unmarked) [Compound 27]	90 to 100%	90 to 100%	–	–	50 to 89%
CC(C)[C@@H](CS(=O)(=O)C(C)c1ccc(Br)cc1)NC(=O)Oc1ccccc1 (some centres unmarked) [Compound 17]	90 to 100%	90 to 100%	20 to 49%	55 to 65 °C	–
CCOc1ccc(OC(=O)N[C@H](CS(=O)(=O)C(C)c2ccc(Br)cc2)C(C)C)cn1 (some centres unmarked) [Compound 32]	90 to 100%	90 to 100%	–	–	–
CON=Cc1ccc(C(C)S(=O)(=O)C[C@@H](NC(=O)OC(C)C)C(C)C)cc1 (some centres unmarked) [Compound 12]	90 to 100%	90 to 100%	–	–	–
CC(C)[C@@H](CS(=O)(=O)C(C)c1ccc(C#N)cc1)NC(=O)Nc1ccc(C(F)(F)F)cc1 (some centres unmarked) [Compound 37]	90 to 100%	90 to 100%	–	–	–
CC(C)[C@@H](CS(=O)(=O)C(C)c1ccc(C#N)cc1)NC(=O)Oc1ccccc1Br (some centres unmarked) [Compound 34]	90 to 100%	90 to 100%	–	–	–
CC(C)OC(=O)N[C@H](CS(=O)(=O)C(C)c1ccc(C=O)cc1)C(C)C (some centres unmarked) [Compound 15]	90 to 100%	90 to 100%	–	50 to 60 °C	–
CC(C)OC(=O)N[C@H](CS(=O)(=O)C(C)c1ccc(Cl)c(Cl)c1)C(C)C (some centres unmarked) [Compound 5]	90 to 100%	50 to 89%	–	75 to 85 °C	< 20%
CC(C)OC(=O)N[C@H](CS(=O)(=O)C(C)c1cc2ccc(F)cc2o1)C(C)C (some centres unmarked) [Compound 25]	90 to 100%	90 to 100%	–	–	–
CC(C)OC(=O)N[C@H](CS(=O)(=O)C(C)c1ccc(C#N)cc1)C(C)C (some centres unmarked) [Compound 2]	90 to 100%	90 to 100%	–	110 to 120 °C	< 20%
CC(C)[C@@H](CS(=O)(=O)C(C)c1ccc(C#N)cc1)NC(=O)Oc1ccc(Br)cc1 (some centres unmarked) [Compound 30]	90 to 100%	90 to 100%	–	–	–
Cc1cccc(OC(=O)N[C@H](CS(=O)(=O)C(C)c2ccc(C#N)cc2)C(C)C)c1 (some centres unmarked) [Compound 19]	90 to 100%	90 to 100%	–	–	–
CC(C)OC(=S)N[C@H](CS(=O)(=O)C(C)c1ccc(C#N)cc1)C(C)C (some centres unmarked) [Compound 35]	90 to 100%	90 to 100%	–	–	–
CCSC(=O)N[C@H](CS(=O)(=O)C(C)c1ccc(C#N)cc1)C(C)C (some centres unmarked) [Compound 36]	50 to 89%	50 to 89%	–	–	–
CC(C)OC(=O)N[C@H](CS(=O)(=O)C(C)c1ccc(C#N)s1)C(C)C (some centres unmarked) [Compound 9]	90 to 100%	90 to 100%	–	–	–
CC(C)OC(=O)N[C@H](CS(=O)(=O)C(C)c1ccc(Br)cc1)C(C)C (some centres unmarked) [Compound 1]	90 to 100%	90 to 100%	–	60 to 70 °C	< 20%
CC(C)OC(=O)N[C@H](CS(=O)(=O)C(C)c1ccc([N+](=O)[O-])cc1)C(C)C (some centres unmarked) [Compound 13]	90 to 100%	90 to 100%	–	–	< 20%
CC(C)[C@@H](CS(=O)(=O)C(C)c1ccc(Br)cc1)NC(=O)Oc1ccc2ccccc2c1 (some centres unmarked) [Compound 31]	90 to 100%	90 to 100%	–	129 to 135 °C	–
COC(=O)c1ccc(C(C)S(=O)(=O)C[C@@H](NC(=O)OC(C)C)C(C)C)cc1 (some centres unmarked) [Compound 14]	90 to 100%	90 to 100%	–	140 to 145 °C	–
C=CCC(c1ccc(C#N)cc1)S(=O)(=O)C[C@@H](NC(=O)Oc1ccc(C)cc1)C(C)C (some centres unmarked) [Compound 26]	90 to 100%	90 to 100%	–	–	–
